Results reported in US10688195B2, “Polymyxin B-coated nanoparticles” (Northwestern University, priority 2016, dated 2020).

What was measured:
PA strain PA99 = assay: Mouse PA abscess model, treatment injected at the site of infection; type: in vivo, Pseudomonas aeruginosa; conditions: mice, data not shown
Method: FIG. 17. AuNP-PB administration at time of infection with PA prevents abscess formation. Mice were injected subcutaneously (SC) with 2×10^6 CFU of PA strain PA99 in 25 ul of PBS, and were then immediately treated with 50 ul PBS (SC), AuNP-PB (SC, equivalent of 2 ug PB), AuNP (without PB, SC, equivalent amount), or free PB (1 ug IV). SC injections were at the site of the abscess. Abscess areas were measured at 17 hr post-infection. Each symbol represents a distinct mouse. (A) Injections 5 min post-infection; (B) Injections 2 hr post-infection.
Experiments conducted during development of embodiments herein employed a mouse PA abscess model in which the heterogenous AuNP-PB are injected directly into the site of infection. This assay has the advantage of determining whether AuNP-PB kill bacteria in vivo in the absence of PK concerns.

[1] = Serum peak concentration of free PB in mice (literature, ref. 83, and scaling); type: in vivo; conditions: 4 mg/kg, estimated by scaling from the 3 mg/kg dose
Method: An appropriate starting dose of free PB in mice is estimated by parameter scaling (ref 57; incorporated by reference in its entirety) to attain Cmax exposures that approximate concentrations obtained in human serum. […] Studies are initiated with a PB dose of 4 mg/kg in mice given by tail vein injection every 12 hr. Mice are monitored for 7 days for signs of toxicity (altered respiratory rate, lack of grooming, decreased activity, weight loss). The dose is increased by 1 mg/kg increments until toxicity is observed. Doses that cause more than temporary symptoms are considered the minimal toxic dose, and the next lower dose will be designated the MTD. The MTD of […] is determined in the same manner, starting with the PB molar equivalent MTD of […].

PA = conditions: free PB for PA; cited from earlier work
[2] = rats, PB alone; cited from earlier work
[3] = mice, 3 mg/kg PB dose; cited from earlier work

## polymyxin B [PB]
PA strain PA99
  Bacterial loads: below the limit of detection
[1]
  Cmax: 5.3 µg/mL
PA
  MIC: 0.5 to 1.0 mg/L
[2]
  Mean half-life: 1.5 h
[3]
  Mean peaks (serum): ~4 mg/L
